These results are taken from ChEMBL document CHEMBL3259590, “The discovery of diazepinone-based 5-HT3 receptor partial agonists” (Bioorg Med Chem Lett, 2014).

A value given as a limit tells only on which side of the number the result lay.

Chain of Cytochrome P450 2C9 (P11712 whole entry): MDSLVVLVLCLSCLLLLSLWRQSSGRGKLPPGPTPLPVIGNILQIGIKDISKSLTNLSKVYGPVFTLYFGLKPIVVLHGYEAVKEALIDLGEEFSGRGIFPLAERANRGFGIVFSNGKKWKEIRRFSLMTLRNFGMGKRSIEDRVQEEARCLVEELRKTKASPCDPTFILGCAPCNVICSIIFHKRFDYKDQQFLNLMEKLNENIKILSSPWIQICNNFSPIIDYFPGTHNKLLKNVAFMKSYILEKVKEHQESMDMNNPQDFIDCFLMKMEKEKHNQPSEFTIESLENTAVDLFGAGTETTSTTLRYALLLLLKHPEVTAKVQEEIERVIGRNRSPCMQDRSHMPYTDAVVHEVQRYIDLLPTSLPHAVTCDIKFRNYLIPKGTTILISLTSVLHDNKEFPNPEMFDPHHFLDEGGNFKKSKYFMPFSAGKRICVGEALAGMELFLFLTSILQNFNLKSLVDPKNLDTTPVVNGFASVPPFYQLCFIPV

One data set concerns the target T1, 5-hydroxytryptamine receptor 3A (Homo sapiens, UniProt P46098).
T1 sequence (P46098 whole entry): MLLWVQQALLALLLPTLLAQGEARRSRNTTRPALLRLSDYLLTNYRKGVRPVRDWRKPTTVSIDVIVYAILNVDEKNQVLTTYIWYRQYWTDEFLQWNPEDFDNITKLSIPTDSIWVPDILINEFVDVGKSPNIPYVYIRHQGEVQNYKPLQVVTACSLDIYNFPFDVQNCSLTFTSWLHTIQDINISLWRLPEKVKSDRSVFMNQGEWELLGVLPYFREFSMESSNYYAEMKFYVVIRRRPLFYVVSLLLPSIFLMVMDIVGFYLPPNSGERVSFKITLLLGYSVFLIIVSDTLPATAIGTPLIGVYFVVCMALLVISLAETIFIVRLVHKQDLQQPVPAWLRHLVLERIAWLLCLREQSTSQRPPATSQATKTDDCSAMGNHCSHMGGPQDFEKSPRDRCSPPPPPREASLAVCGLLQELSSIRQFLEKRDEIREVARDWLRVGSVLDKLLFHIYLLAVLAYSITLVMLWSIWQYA
In words: Displacement of [9-methyl-3H]BRL-43694 from human 5-HT3A receptor after overnight incubation by scintillation proximity assay.
Conditions: not given
Broadly, the Ki is a dissociation constant, usually derived from enzyme kinetics or from competition with a known ligand. Molecule `O=C1c2cccc3ccn(c23)CCN1[C@H]1CN2CCC1CC2` showed an inhibitory constant (Ki) of 0.0676 µM. This counts as double-digit nanomolar.
For `Cc1cc2c3c(cnn3CCN([C@@H]3CN4CCC3CC4)C2=O)c1`, the Ki was 0.0008 µM.

For a further data set, the target named is T2, 5-hydroxytryptamine receptor 3A (Homo sapiens) (UniProt P46098).
T2 sequence (whole entry): T1 sequence (P46098 whole entry)
Description: Partial agonist activity at human 5-HT3A receptor expressed in HEK293 cells assessed as change in Ca2+ level measured as intrinsic activity at 1 uM relative to 5-HT in presence of carbachol. The data set is classed as cell-based.
Conditions: not given
For the molecule `O=C1c2cc(Cl)cc3cnn(c23)CCN1[C@@H]1CN2CCC1CC2`, the Activity was 28%.

The next data set has as its target T3, 5-hydroxytryptamine receptor 3A (Mus musculus) (UniProt P23979).
T3 sequence (whole entry): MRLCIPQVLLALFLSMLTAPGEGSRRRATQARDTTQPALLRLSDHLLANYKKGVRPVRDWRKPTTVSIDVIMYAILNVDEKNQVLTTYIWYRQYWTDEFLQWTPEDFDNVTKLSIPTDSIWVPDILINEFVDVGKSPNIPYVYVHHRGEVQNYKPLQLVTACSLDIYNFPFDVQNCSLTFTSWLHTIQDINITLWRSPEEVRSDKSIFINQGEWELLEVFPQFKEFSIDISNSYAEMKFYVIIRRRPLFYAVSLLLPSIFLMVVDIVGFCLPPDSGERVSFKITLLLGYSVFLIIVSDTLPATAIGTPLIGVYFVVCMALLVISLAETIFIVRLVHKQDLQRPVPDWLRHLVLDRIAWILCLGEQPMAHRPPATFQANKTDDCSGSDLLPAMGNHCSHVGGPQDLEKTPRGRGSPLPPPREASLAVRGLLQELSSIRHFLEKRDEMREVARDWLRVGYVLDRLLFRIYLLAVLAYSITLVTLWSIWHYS
In words: Partial agonist activity at mouse 5-HT3A receptor expressed in HEK293 cells assessed as change in Ca2+ level measured as intrinsic activity at 1 uM relative to 5-HT in presence of carbachol. The data set is classed as cell-based.
Conditions: not given
On to `O=C1c2cc(Cl)cc3cnn(c23)CCN1[C@@H]1CN2CCC1CC2`, for which the Activity stood at 27%.

The target in another data set is T1, 5-hydroxytryptamine receptor 3A. In words: Agonist activity at human 5-HT3A receptor expressed in HEK293 cells in presence of carbachol. In kind it is cell-based.
Conditions: not given
The term EC50 denotes the concentration needed to bring the measured effect to its halfway point. Take `O=C1c2cc(Cl)cc3cnn(c23)CCN1[C@@H]1CN2CCC1CC2`: the EC50 stood at 0.178 µM.

For another data set, the target named is T4, 5-hydroxytryptamine receptor 3A (Mus musculus, UniProt P23979).
T4 sequence (P23979 whole entry): T3 sequence (whole entry)
Description: Agonist activity at mouse 5-HT3A receptor expressed in HEK293 cells in presence of carbachol. The data set is classed as cell-based.
Conditions: not given
Regarding `O=C1c2cc(Cl)cc3cnn(c23)CCN1[C@@H]1CN2CCC1CC2`, the 50% effective concentration (EC50) came to 0.178 µM.

A further data set addresses T5, Cytochrome P450 1A2 (Homo sapiens, UniProt P05177).
T5 sequence (P05177 whole entry): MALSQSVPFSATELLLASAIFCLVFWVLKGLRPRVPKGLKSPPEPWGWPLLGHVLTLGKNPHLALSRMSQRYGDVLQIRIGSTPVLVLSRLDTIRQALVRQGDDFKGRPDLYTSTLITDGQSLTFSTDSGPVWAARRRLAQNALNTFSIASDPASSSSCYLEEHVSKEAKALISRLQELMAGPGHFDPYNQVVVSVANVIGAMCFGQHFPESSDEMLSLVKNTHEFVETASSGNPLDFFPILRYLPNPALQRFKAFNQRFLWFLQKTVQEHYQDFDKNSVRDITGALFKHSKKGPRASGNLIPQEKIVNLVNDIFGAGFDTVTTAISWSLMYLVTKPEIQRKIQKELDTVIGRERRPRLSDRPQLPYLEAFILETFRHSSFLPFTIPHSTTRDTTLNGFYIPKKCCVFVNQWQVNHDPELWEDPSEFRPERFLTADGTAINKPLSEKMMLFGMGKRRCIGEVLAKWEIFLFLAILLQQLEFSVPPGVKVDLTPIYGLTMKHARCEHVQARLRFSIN
Description: Inhibition of CYP1A2 (unknown origin). In kind it is ADME.
Conditions: not given
By IC50 is commonly meant the concentration that inhibits the measured activity by half. On to `Cc1cn2c3c(cc(Cl)cc13)C(=O)N([C@@H]1CN3CCC1CC3)CC2`, for which the midpoint of inhibition, the IC50, lay at 8.8 µM.
Turning to `O=C1c2cc(Cl)cc3cnn(c23)CCN1[C@@H]1CN2CCC1CC2`, the concentration for half-maximal inhibition (IC50) is more than 50 µM.

A further data set addresses T6, Cytochrome P450 2B6 (Homo sapiens, UniProt P20813).
T6 sequence (P20813 whole entry): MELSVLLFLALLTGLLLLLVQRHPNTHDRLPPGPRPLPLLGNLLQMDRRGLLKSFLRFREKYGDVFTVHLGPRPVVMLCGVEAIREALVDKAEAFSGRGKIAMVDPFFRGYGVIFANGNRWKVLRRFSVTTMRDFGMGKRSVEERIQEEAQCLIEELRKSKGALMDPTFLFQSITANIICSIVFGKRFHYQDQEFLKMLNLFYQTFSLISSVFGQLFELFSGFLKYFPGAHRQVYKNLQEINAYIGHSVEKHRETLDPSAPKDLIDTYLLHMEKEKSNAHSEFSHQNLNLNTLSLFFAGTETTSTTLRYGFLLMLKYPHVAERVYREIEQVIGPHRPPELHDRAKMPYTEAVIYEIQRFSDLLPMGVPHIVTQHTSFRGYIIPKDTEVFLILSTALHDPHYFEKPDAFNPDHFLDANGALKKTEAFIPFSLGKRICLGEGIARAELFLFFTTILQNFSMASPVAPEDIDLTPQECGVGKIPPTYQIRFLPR
Description: Inhibition of CYP2B6 (unknown origin). The data set is classed as ADME.
Conditions: not given
For `O=C1c2cc(Cl)cc3cnn(c23)CCN1[C@@H]1CN2CCC1CC2`, the half-inhibitory concentration (IC50) was more than 50 µM.

The next data set concerns the target Cytochrome P450 2C9 (Homo sapiens, UniProt P11712). In words: Inhibition of CYP2C9 (unknown origin). In kind it is ADME.
Conditions: not given
`O=C1c2cc(Cl)cc3cnn(c23)CCN1[C@@H]1CN2CCC1CC2`: the concentration for half-maximal inhibition (IC50) was more than 50 µM.

The target of the next data set is Cytochrome P450 2C19 (Homo sapiens, UniProt P33261). Description: Inhibition of CYP2C19 (unknown origin).
Chain of Cytochrome P450 2C19 (P33261 whole entry): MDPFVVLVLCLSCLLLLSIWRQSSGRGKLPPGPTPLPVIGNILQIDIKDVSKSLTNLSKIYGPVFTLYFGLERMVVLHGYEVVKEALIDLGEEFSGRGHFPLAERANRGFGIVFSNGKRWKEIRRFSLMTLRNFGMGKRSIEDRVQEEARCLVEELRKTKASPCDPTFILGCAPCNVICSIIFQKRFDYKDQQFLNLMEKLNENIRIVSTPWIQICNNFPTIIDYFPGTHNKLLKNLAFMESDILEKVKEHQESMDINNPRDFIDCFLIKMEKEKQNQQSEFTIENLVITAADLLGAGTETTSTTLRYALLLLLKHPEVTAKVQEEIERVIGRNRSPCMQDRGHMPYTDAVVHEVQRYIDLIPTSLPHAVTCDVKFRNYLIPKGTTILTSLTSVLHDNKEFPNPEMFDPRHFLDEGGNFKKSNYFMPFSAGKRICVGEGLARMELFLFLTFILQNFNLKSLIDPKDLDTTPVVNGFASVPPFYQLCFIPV
Conditions: not given
In kind it is ADME.
On to `O=C1c2cc(Cl)cc3cnn(c23)CCN1[C@@H]1CN2CCC1CC2`, for which the IC50 was more than 50 µM.

In the next data set the target is Cytochrome P450 2D6 (Homo sapiens, UniProt P10635). In words: Inhibition of CYP2D6 (unknown origin). The data set is classed as ADME.
Chain of Cytochrome P450 2D6 (P10635 whole entry): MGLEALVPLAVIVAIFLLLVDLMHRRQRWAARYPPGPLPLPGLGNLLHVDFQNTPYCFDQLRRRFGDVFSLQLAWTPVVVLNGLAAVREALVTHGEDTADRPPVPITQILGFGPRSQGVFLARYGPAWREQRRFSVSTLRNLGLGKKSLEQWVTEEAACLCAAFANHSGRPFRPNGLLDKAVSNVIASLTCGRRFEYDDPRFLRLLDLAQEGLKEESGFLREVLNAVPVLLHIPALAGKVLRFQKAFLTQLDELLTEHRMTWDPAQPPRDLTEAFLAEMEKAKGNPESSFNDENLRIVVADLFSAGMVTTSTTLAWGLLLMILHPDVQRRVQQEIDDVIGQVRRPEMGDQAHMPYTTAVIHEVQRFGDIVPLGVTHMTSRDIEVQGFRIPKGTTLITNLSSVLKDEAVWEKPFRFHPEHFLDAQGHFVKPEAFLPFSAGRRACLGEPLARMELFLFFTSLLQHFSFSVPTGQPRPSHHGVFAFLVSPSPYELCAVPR
Conditions: not given
Consider `O=C1c2cc(Cl)cc3cnn(c23)CCN1[C@@H]1CN2CCC1CC2`, for which the IC50 is more than 50 µM.

A further data set deals with Cytochrome P450 3A4 (Homo sapiens, UniProt P08684). In words: Inhibition of CYP3A4 (unknown origin). The data set is classed as ADME.
Chain of Cytochrome P450 3A4 (P08684 whole entry): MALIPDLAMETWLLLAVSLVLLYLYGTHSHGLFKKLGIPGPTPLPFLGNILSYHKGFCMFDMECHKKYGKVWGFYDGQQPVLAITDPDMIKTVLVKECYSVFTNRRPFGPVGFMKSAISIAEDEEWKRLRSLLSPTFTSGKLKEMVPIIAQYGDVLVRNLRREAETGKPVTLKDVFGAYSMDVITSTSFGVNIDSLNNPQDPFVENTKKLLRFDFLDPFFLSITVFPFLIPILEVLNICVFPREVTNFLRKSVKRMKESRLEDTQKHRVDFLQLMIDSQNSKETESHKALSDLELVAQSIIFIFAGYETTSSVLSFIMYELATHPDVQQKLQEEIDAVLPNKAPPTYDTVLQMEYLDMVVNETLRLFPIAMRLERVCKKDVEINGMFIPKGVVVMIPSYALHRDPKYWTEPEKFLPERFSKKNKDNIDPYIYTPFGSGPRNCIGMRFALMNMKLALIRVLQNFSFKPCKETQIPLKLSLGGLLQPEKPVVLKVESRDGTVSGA
Conditions: not given
As to `O=C1c2cc(Cl)cc3cnn(c23)CCN1[C@@H]1CN2CCC1CC2`, the IC50 is more than 50 µM.

Test system in another data set: not listed separately
In words: Intrinsic clearance in human liver microsomes. In kind it is ADME. Conditions: read-out: CLH. For orientation: Microsomes from liver hold many membrane-bound enzymes, among them those of drug oxidation.
For the molecule `Cc1[nH]cnc1CN1CCc2c(c3ccccc3n2C)C1=O` [ALOSETRON], the microsomal CLint was determined as 3 µL/min/mg.
`Cc1cn2c3c(cc(Cl)cc13)C(=O)N([C@@H]1CN3CCC1CC3)CC2`: the microsomal CLint was determined as 2.3 µL/min/mg.
For the molecule `O=C1c2cc(Cl)cc3cnn(c23)CCN1[C@@H]1CN2CCC1CC2`, the microsomal CLint was 3.1 µL/min/mg.

A further data set has as its system Mus musculus. In words: Inhibition of 5-HT induced-bradycardia in ICR mouse von Bezold-Jarisch reflex model at 1 mg/kg, po after 60 mins relative to control. In kind it is functional. As to conditions: 1 h.
In general, inhibition in vivo refers to the percentage by which the read-out fell short of the control. `Cc1[nH]cnc1CN1CCc2c(c3ccccc3n2C)C1=O` [ALOSETRON] gave an inhibition in vivo at 1 mg/kg of 95%.
